Entries after “also recorded” stand apart in the source; their conditions may differ.
Tests used:
[1] = tested on: graft vs. host reaction, CB6F1 mice grafted with BALB/c splenocytes; assay: Graft vs. host reaction (Simonsen splenomegaly assay); format: in vivo, mouse; conditions: Experiment #2, 0.2 mg/kg i.p., Days 1-7
Experimental: Graft vs. host reaction. In vivo studies with mycalamide A utilized the […]→F1, GVHR model (Simonsen splenomegaly assay). CB6F1 male mice, 4 weeks of age, were injected intraperitoneally with 5×10^7 splenocytes from BALB/c male mice, 8 weeks of age, on day 0 (BALB/c→CB6F1). A syngeneic control group (CB6F1 →CB6F1) was similarly prepared and served as the negative control. For experiment 1, the grafted mice were divided into 5 treatment groups of 5 mice each. Groups were injected intraperitoneally with mycalamide A (dissolved initially in ethanol followed by dilution in sterile phosphate-buffered saline as a vehicle) or vehicle alone on days 1-7. For experiment 2, the grafted mice were divided into 7 treatment groups of 5 mice each and similarly injected intraperitoneally with mycalamide A, an immunosuppressive standard, didemnin B, or vehicle alone on days 1-7. On day 7 all groups were sacrificed, spleens excised, and the mean spleen weight and stimulation index calculated for each group. The stimulation index was calculated as follows: [formula] A spleen index of 1.3 or greater is considered a positive response.
^a CB6F1 mice (5 per group) were grafted with 5 × 10^7
BALB/c splenocytes, intraperitoneally on Day 0. Groups were injected
intraperitoneally with drug or vehicle on Days 1-7. Positive indicates
grafted mice receiving vehicle alone.
^b Number of surviving mice at the end of the experiment.
^c Stimulation index (SI) = (spleen weight of test group/body weight
of test group)/(spleen weight of syngeneic group/body weight of syngeneic
^d Suppression = [(SI of positive control) (SI of test group)]/[(SI
of positive control) (SI of syngeneic group)].
^e Didemnin B immunosuppressive standard.

[2] = tested on: T cells; assay: T cell viability by trypan blue exclusion; format: cell-based, murine; conditions: 1 nM
Experimental: (§1) Determination of mycalamide A toxicity. The toxicity of mycalamide A on murine splenocytes and human PBL was determined using a colorimetric assay, based on the ability of viable cells to convert the colorless tetrazolium salt, 3-(4,5-dimethylthiazol-2yl)-2,5-diphenyl tetrazolium bromide (MTT) to a colored formazan product and trypan blue exclusion. For the colorimetric assay, a volume of 0.075 ml of an MTT solution (550 μg/ml of MTT in TCM) was added to test and control wells containing one of the populations of splenocytes or test wells and incubated for 5-6 hours following the initial incubation period. Microtiter plates were centrifuged at 100× g, supernatants carefully removed, and a volume of 0.20 ml of isopropyl alcohol was added to each well to dissolve the formazan crystals. The absorbance at 570 nm was determined for each well using an ELISA plate reader. […] As an additional parameter of toxicity, wells containing cultured lymphocytes with various dilutions of mycalamide A were examined with trypan blue, and the percentage of dye-excluding (viable) cells was determined.
(§2) Compounds were added as indicated. Cells were harveste
(§3) Each data point represents the mean value o

[3] = T cell viability by trypan blue exclusion; format: cell-based, murine; conditions: t cells; 1 nM, Experiment 1, 20 hours; read-out: percentage of trypan blue-positive cells
Experimental: as §1, §2, §3

[4] = tested on: murine CD4^+ T cells; assay: Activation of CD4+ T cells by anti-CD3 mAb/mB7; format: cell-based, murine (BALB/c); conditions: anti-CD3/mB7
Experimental: (§4) (A) Costimulation of T cells with anti-CD3 mAb and mB7. […] (B) Costimulation of T cells with mB7 and PMA. […] All cultures were incubated for 48 hours and pulsed with 1 μCi [ ^3 H] thymidine/well for the last 6 hours of the incubation period to assay for T cell proliferation.
(§5) (A) Costimulation of T cells with anti-CD3 mAb and mB7. 2×10^5 purified BALB/c CD4^+ T lymphocytes were stimulated with the indicated concentrations of anti-CD3 mAb in the presence of medium (.largecircle.), 2×10^4 paraformaldehyde-fixed CHO-mB7 cells (.quadrature.), or 2×10^4 paraformaldehyde-fixed CHO-mB7 cells in the presence of 0.1 nM FK506 (.gradient.), 1 nM FK506 (Δ), or 10 nM FK506 ( ). (B) Costimulation of T cells with mB7 and PMA. 2×10^5 purified BALB/c CD4^+ T lymphocytes were stimulated with the indicated concentrations of PMA and either medium (.largecircle.), 2×10^4 paraformaldehyde-fixed CHO-mB7 cells (.quadrature.), or paraformaldehyde-fixed CHO-mB7 cells in the presence of 0.1 nM FK506 (.gradient.), 1 nM FK506 (Δ), or 10 nM FK506 ( ). All cultures were incubated for 48 hours and pulsed with 1 μCi [^3 H] thymidine/well for the last 6 hours of the incubation period to assay for T cell proliferation.
as §5, with “pM mycalamide A” for “nM FK506”
mB7-mediated activation of murine CD4^+ T cells. Mouse T cells were purified as follows: splenocytes were depleted of red blood cells by treatment with Tris-NH4 Cl. T cells were enriched by nylon wool fractionation. CD4^+ T cells from BALB/c mice were purified by two-fold treatment with a mixture of anti-MHC Class II and anti-CD8 monoclonal antibodies and rabbit complement. Chinese hamster ovary cells (CHO) and CHO cells transfected with the murine B7 molecule (CHOmB7) were fixed with 1% paraformaldehyde prior to addition to the cultures. Microcultures were set up in duplicate 96-well plates. […] All cultures were incubated for 48 hours and pulsed with 1 μCi ^3 H-thymidine/well for the last 6 hours of the incubation period to assay for T cell proliferation.

[5] = tested on: murine CD4^+ T cells; assay: Activation of CD4+ T cells by PMA/mB7; format: cell-based, murine (BALB/c); conditions: in words
Experimental: as §4, §5
(A) Costimulation of T cells with anti-CD3 mAb and mB7. […]

| Compound | % Suppression [1] | Number of surviving mice at the end of the experiment [1] | Stim. index [1] | number of cells excluding trypan blue ([2]; Experiment 1, 20 hours) | number of cells excluding trypan blue ([2]; Experiment 2, 20 hours) | percentage of trypan blue-positive cells ([2]; Experiment 2, 20 hours) | cytotoxicity at 20 h, 0.001 µM [3] | potency compared to CsA ([4]; FK506 vs CsA) | effect on anti-CD3/mB7 activation of CD4+ cells ([4]; in words) | effect on PMA/CHO-mB7 stimulation of CD4+ cells [5] |
| --- | --- | --- | --- | --- | --- | --- | --- | --- | --- | --- |
| CC[C@H](C)[C@H]1NC(=O)[C@@H](NC(=O)[C@@H](CC(C)C)N(C)C(=O)[C@@H]2CCCN2C(=O)C(C)O)[C@@H](C)OC(=O)[C@H](Cc2ccc(OC)cc2)N(C)C(=O)[C@@H]2CCCN2C(=O)[C@H](CC(C)C)NC(=O)[C@@H](C)C(=O)[C@H](C(C)C)OC(=O)C[C@@H]1O (stereo partly shown) [Didemnin B, didemnin B, reference compound] | 113% | 5/5 | 0.93 | – | – | – | – | – | – | – |
| C=CC[C@@H]1/C=C(\C)C[C@H](C)C[C@H](OC)[C@H]2O[C@@](O)(C(=O)C(=O)N3CCCC[C@H]3C(=O)O[C@H](/C(C)=C/[C@@H]3CC[C@@H](O)[C@H](OC)C3)[C@H](C)[C@@H](O)CC1=O)[C@H](C)C[C@@H]2OC [FK506, reference compound] | – | – | – | 1.40 × 10^6 cells | 1.64 × 10^6 cells | < 2% | < 2% | approximately 100 times | parallel those of CsA; also recorded: blocks the anti-CD3/mB7 activation of CD4^+ cells | not affected |
